This is an account of results in patent publication US20140221499A1, “NOVEL RODENT CONTROL AGENTS AND USES THEREOF” (priority 2011, published 2014).

Experiment [1] has as its target TAAR1 (Mus musculus, UniProt Q923Y8). As to the kind of experiment: TAAR1 reporter gene assay. Type of experiment: cell-based. Here is the method: HEK293 cells were co-transfected with TAAR expression plasmids and a cAMPdependent reporter gene encoding secreted alkaline phosphatase (CRE-SEAP). Transfected cells were incubated with urine extracts from different mammalian species, and phosphatase activity was quantified with a fluorescent substrate as a reporter for TAAR activation. […] Responses to predator odors were not observed in control cells transfected with reporter gene alone. Three other TAARs-TAAR7f, TAAR8c, and TAAR9-detected natural products common to urine of numerous mammalian species, including mouse, rat, human, and carnivores (FIG. 1B, FIG. 11). However, these receptors detect carnivore and non-carnivore urines with similar sensitivity. We reasoned that TAAR4 detected a specific chemical enriched in predator urine, and that this cue can function as a kairomone. […] Basic dichloromethane extracts of bobcat urine were separated by silica gel chromatography, and fractions analyzed with the reporter gene assay (FIG. 2A). Several chromatography fractions containing the TAAR4 activator were obtained and analyzed by mass spectrometry (FIG. 2B).
TAAR functional assays. […] SEAP activity is measured as fluorescence resulting from dephosphorylation of a substrate, 4-methylumbelliferyl phosphate. Fluorescence values were obtained using an EnVision plate reader (Perkin Elmer) and are reported directly without normalization. […]
For orientation: In a reporter assay the amount or activity of a reporter protein is the signal.

The test system of experiment [2] is Sprague-Dawley rats. Kind of experiment: Open field odor avoidance. The class given is in vivo, rat. The following applies: ten minute exposure, 12 animals ±SEM; 1 ml urine or 5 μl amine. Here is the method: We next examined behavioral responses of rodents to 2-phenylethylamine. […] Behaviors of rats in a square-shaped arena were recorded and analyzed following placement of test stimuli in a pseudorandom corner (FIG. 5A). […] Thus, 2-phenylethylamine, in the absence of other predator odor cues, was sufficient to evoke rat avoidance behavior.
Open field behavioral analysis. Rat behavioral responses to odors in the open field were measured as described previously (Fendt M (2006) Exposure to urine of canids and felids, but not of herbivores, induces defensive behavior in laboratory rats. Journal of chemical ecology 32(12):2617-2627) with the following modifications. Adult Sprague-Dawley rats (240-340 g; Janvier, Le Genest St. Isle, France) were placed in the center of a 45 cm×45 cm Plexiglass arena (TSE Systems, Bad Homburg, Germany) equipped with infrared sensors (distance 14 mm, illumination 80-120 lux). The arena contained glass dishes (36 mm) in each corner, with one dish containing test stimuli. Prior to testing, animals were habituated to the arena by introducing them for three consecutive days. […] Location of the rats was automatically recorded using the infrared detectors and analyzed (TSE Systems software). Statistical significance was measured using Wilcoxon Signed Test (**p<0.01; comparison with chance level (25%)). […]

TAAR1, sequence (Q923Y8 whole entry, the tested form may be a part): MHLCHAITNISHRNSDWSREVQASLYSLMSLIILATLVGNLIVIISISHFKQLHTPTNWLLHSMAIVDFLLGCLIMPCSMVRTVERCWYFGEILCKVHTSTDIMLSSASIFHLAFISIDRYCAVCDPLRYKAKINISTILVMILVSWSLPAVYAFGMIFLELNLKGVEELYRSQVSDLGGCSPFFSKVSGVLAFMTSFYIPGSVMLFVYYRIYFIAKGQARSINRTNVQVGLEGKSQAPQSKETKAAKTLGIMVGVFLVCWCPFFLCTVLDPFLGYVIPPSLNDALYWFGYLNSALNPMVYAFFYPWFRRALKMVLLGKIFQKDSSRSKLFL

For `NCCc1ccccc1` [2-phenylethylamine], in experiment [1], the TAAR1 activation entry was “did activate TAAR1”. The “percentage of time rats are located in the odor quadrant” value in experiment [2] is 8.0±2.0%.
